Reference: US9546129B2, “DTPA prodrugs, compositions thereof, and methods of using the same” (priority 2012, dated 2017)

Tests used:
[1] = Caco-2 transport study (apical to basolateral); type: in vitro ADME, human; details: human, Caco-2; apical to basolateral; read-out: Apparent permeation coefficient
Description: (§1) Caco-2 cells are a human colon epithelial cancer cell line that expresses transporters, efflux proteins and phase II enzymes and can be used to correlate cell permeability with drug absorption. In addition to determining the apparent permeability coefficient, an estimation of C2E2 metabolism during transport can be obtained. The aim of these preliminary studies was to evaluate a range of C2E2 concentrations (25, 50 & 100 μM) in order to determine a linear concentration range in which further studies could be performed.
(§2) Caco-2 cells (passage #39) were cultured in 75 cm^2T-flasks at 37° C. in a 5% CO2 constant humidity environment. The medium was replaced 3 times a week and the monolayers were sub-cultured to passage #41. When plating the cells 0.5 mL of a 120,000 cells/mL suspension was added to each apical (AP) compartment of the first and then 1.5 mL of cell culture medium was placed into the basolateral (BL) compartment of the Transwells®. Following 21-24 days on the Transwell® plates with media changes 2-3 times a week the Caco-2 transport studies were performed.
(§3) Prior to the transport experiments the transport medium was warmed to 37° C. Transport medium consisted of Hank's Balanced Salt Solution (HBSS) (1×) with calcium and magnesium 500 mL with the addition of 1M HEPES buffer (5 mL) and 1.25M D-Glucose solution in HBSS (10 mL). The cell culture medium was removed from the Transwells® to be used for the experiment and each well was washed twice with warm transport medium. The Transwells® were then pre-incubated for 30 min with transport medium. Finally, the trans-epithelial resistance (TEER) values for each Transwell® were measured using a voltohmmmeter and chopstick electrode. The TEER values should be in the range of 300-750 and should vary as little as possible. Dosing solutions were prepared in warm (37° C.) transport medium. […] The concentration of C2E2 was then determined by LC-MS/MS. The concentration of the dosing solutions was also measured to determine the concentration in the donor compartment at time zero. […]

[2] = test system: Caco-2 cells; assay: Caco-2 transport study (apical to basolateral); type: in vitro ADME, human
Description: as §1, §2, §3

[3] = test system: ^241Am contaminated rats; assay: Once vs twice daily dosing ^241Am decorporation study in rats; type: in vivo, Sprague Dawley rat; details: for Total Decorporation: seven days after IM ^241Am
Description: The animal study was conducted according to a protocol approved by The University of North Carolina at Chapel Hill Institutional Animal Care and Use Committee. Sixteen male Sprague Dawley rats were contaminated with ^241Am(NO3)3 (0.25 μCi) by intramuscular injection (0.1 mL, 0.1 M HNO3) into the right hind leg, under isoflurane anesthesia. Immediately after injection, body weights were recorded (Day 0 weight) and animals placed in individual metabolic cages. The 16 rats were assigned to four groups; untreated control, 5 daily oral gavage doses of 600 mg/kg C2E2 once daily, 5 days of oral gavage treatment of 300 mg/kg C2E2 twice daily or 5 daily intravenous doses of Zn-DTPA solution (13.3 mg/kg) via a jugular vein catheter. The C2E2 was from Lot 050 obtained using Method 2. The C2E2 dosing solution utilized was a 10% w/w solution in water. […] Excreted urine and feces were collected at 2, 4, 8, 10, 12, 14, 18, 20 and 24 hours after the first dose and daily for the remainder of the study. The samples were transferred to 20 mL scintillation vials, weighed and placed in a gamma counter (Wizard2 2480, Perkin Elmer) for detection of ^241Am gamma activity. In addition, following necropsy, selected tissues were removed, weighed and placed in a gamma counter (Wizard2 2480, Perkin Elmer) for detection of ^241Am gamma activity. The total amount of ^241Am administered to the animals was determined by quantifying the 59.7 keV photons emitted by ^241Am in duplicate aliquots (100 μL) of the injection solution using a gamma counter (wizard series, Perkin-Elmer). A counting window from 40-80 keV and a 60-second counting time were used for acquisition and each reading was corrected for background at acquisition. All experimental tissues and samples were counted using the same gamma counter and protocol. For all the samples, ^241Am content was expressed as a percentage of the initial dose. The femur from the leg opposite to the injection site was scaled by a factor of 20 to estimate total skeletal ^241Am burden.

[4] = test system: Salmonella typhimurium tester strains TA98, TA100, TA1535, and TA1537; assay: Bacterial Reverse Mutation Assay (Salmonella); type: cell-based
Description: (§4) The objective of this study was to evaluate C2E2 for its ability to induce reverse mutations at the histidine locus in Salmonella typhimurium tester strains TA98, TA100, TA1535, and TA1537, and at the tryptophan locus of Escherichia coli (E. coli) strain WP2uvrA in the presence or absence of an exogenous mammalian metabolic activation system (S9).
(§5) C2E2 was evaluated in an initial mutagenicity assay in all five tester strains at dose levels of 5.00, 16.0, 50.0, 160, 500, 1600, and 5000 μg/plate with and without S9. C2E2 was from Lot 050 obtained using Method 2. C2E2 was prepared in Cell Culture Grade Water vehicle and formed a transparent colorless solution. […] The reductions in the numbers of revertant colonies and the enhanced background lawn growth are indicative of C2E2 treatment-related toxicity. With exception to the enhanced background lawn in TA1537 without S9, all other background lawns in all strains, with and without S9, were normal indicating there was appropriate bacterial growth during treatment to express a mutagenic event. There were no relevant increases in the numbers of revertant colonies observed at any dose level with any strain in the absence or presence of S9 metabolic activation.

[5] = test system: Escherichia coli (E. coli) strain WP2uvrA; assay: Bacterial Reverse Mutation Assay (E. coli); type: cell-based; details: for Dose level with reductions in mean numbers of revertant colonies (toxicity): WP2uvrA
Description: as §4, §5

[6] = up to 5000 μg/plate, with and without S9

For CCOC(=O)CN(CCN(CCN(CC(=O)O)CC(=O)OCC)CC(=O)O)CC(=O)O [C2E2, 6,9-bis(carboxymethyl)-3-(2-ethoxy-2-oxoethyl)-11-oxo-12-oxa-3,6,9-triazatetradecan-1-oic acid], the Papp A→B at 120 min [1] was 4.88 ×10⁻⁶ cm/s, the “Percentage of dose detected in the receiving compartment” value ([2]; apical to basolateral, 25, 50 & 100 μM, two hours) was 18-22% and the “Predicted absorption in humans” value ([2]; from Caco-2 Papp using data of Shiyin Yee) was 20-70%. The “Effect of dividing the dosage (twice daily vs once daily) on total decorporation” value ([3]; 300 mg/kg BD vs 600 mg/kg OD, male rats) was “did not significantly alter total decorporation”, the “Total Decorporation” value ([3]; C2E2 300 mg/kg oral gavage twice daily for 5 days, male rats) was 43.6 ± 1.6 % of injected dose and the “Total Decorporation” value ([3]; C2E2 600 mg/kg oral gavage once daily x5, male rats) was 39.7 ± 2.6 % of injected dose. The “Dose level with reductions in mean numbers of revertant colonies (toxicity)” value (“Dose level with reductions” below) ([4]; TA100, TA1535, TA1537, without S9) was 5000 μg/plate, the “Dose level with reductions” value ([4]; TA1535, TA1537, with S9) was ≥ 500 μg/plate and the “Mutagenicity (reverse mutations at the histidine locus)” value [4, 6] was “negative”. The “Dose level with reductions” value ([5]; with S9) was ≥ 500 μg/plate, the “Dose level with reductions” value ([5]; without S9) was 5000 μg/plate and the “Mutagenicity (reverse mutations at the tryptophan locus)” value [5, 6] was “negative”.
